# Values of other authors as cited in US20250090612A1, “FEED ADDITIVE COMPOSITIONS AND METHODS OF USE” (PMI Nutrition, LLC, priority 2021, published 2025).
# System: C. elegans
# Conditions: C. elegans assay
substance,measurement,value
urolithins,concentration needed to obtain a positive effect on muscle function,50 µM
same,concentration required to trigger the muscle function response,11.4 µg/mL
